Target: T1, IKZF2 (Homo sapiens, UniProt Q96SW2+Q9UKS7)
T1 construct: host or cells: Jurkat-IKZF2-HiBiT
Assay: IKZF2 HiBiT degradation assay (Jurkat-IKZF2-HiBiT)
Type: cell-based
Settings: for DC50: read-out: IKZF2 degradation DC50, Jurkat-IKZF2-HiBiT cells, 24 hours; for Dmax: read-out: IKZF2 degradation Dmax (%)
Method: Degradation of IKZF2 protein was determined by IKZF2 HiBiT assay using the Jurkat-IKZF2-HiBiT (Promega) cell line. […] Compounds were serially diluted in culture medium, and 20 μl of the diluted compounds were added to the appropriate wells of the plate. After the addition of compounds, the cells were incubated at 37° C. in an atmosphere of 5% CO2 for 24 hours. At the end of treatment, 40 ul of Nano-Glo HiBiT Lytic Detection Reagent (Promega) was added to each well, and then the plates were incubated at room temperature for 10-20 minutes. The luminescent signal was measured using a CALRIOstar plate reader (BMG Labtech). The readings were normalized to the DMSO-treated cells and the IC50 was calculated by nonlinear regression (four parameters sigmoid fitted with variable slope, least squares fit, and no constraint) analysis using the GraphPad Prism 8 software.

T1 sequence (Q9UKS7 whole entry): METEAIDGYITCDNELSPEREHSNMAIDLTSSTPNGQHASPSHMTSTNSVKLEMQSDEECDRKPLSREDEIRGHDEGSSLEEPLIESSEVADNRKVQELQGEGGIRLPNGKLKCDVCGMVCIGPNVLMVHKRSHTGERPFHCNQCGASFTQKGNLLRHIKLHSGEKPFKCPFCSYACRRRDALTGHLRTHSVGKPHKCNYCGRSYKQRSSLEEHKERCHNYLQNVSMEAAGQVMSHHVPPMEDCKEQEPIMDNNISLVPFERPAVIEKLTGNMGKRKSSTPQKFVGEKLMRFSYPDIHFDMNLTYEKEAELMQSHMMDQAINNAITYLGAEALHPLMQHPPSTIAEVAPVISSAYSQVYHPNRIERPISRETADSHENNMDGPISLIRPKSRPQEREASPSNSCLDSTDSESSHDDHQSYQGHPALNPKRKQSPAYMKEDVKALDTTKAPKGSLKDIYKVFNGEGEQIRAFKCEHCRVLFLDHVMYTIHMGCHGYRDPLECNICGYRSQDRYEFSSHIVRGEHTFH
T1 sequence (Q96SW2 whole entry): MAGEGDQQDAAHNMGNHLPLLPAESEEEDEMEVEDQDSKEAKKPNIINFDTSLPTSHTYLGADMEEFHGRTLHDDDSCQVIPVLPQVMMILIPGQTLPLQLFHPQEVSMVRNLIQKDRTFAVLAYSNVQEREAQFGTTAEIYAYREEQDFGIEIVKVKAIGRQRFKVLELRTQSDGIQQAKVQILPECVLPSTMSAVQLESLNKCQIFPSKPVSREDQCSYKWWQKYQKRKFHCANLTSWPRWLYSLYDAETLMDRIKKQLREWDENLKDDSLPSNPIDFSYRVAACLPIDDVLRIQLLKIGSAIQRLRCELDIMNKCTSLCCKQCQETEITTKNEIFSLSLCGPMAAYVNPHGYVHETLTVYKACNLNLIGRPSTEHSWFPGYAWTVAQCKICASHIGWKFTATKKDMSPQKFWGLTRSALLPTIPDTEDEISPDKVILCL
T1 sequence (Q16531 2-1140 partner limits assumed): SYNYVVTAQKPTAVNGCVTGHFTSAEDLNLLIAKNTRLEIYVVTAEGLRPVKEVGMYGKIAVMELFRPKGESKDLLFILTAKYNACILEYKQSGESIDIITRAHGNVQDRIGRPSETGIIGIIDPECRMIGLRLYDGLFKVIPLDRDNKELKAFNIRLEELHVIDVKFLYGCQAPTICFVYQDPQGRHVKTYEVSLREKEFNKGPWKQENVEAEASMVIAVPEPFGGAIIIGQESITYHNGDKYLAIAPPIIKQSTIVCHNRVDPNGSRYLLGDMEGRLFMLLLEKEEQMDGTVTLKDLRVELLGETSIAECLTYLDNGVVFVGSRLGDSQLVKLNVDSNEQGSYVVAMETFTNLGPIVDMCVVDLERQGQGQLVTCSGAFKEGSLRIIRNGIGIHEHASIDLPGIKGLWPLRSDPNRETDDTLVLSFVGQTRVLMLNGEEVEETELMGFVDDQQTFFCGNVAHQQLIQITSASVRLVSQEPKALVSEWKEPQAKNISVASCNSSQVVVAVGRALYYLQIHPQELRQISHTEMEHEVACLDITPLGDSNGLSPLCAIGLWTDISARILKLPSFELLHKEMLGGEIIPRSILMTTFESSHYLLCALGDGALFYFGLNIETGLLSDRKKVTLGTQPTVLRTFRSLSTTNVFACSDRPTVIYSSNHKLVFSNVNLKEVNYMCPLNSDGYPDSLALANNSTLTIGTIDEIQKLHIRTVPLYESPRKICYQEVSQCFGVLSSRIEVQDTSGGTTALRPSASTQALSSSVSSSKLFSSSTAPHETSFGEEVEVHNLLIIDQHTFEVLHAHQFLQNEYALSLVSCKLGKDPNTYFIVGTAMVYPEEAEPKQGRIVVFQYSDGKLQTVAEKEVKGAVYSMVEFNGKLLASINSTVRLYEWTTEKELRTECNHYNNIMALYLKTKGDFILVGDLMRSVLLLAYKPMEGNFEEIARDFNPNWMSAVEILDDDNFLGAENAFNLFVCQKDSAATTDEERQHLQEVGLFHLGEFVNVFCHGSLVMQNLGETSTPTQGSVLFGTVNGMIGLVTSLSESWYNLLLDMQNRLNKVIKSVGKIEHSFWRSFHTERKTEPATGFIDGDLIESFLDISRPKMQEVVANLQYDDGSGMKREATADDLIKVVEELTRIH

O=C1CCC(N2Cc3cc4c(cc3C2=O)OC[C@@H]2CN(Cc3ccccc3)CCN42)C(=O)N1 (stereo partly drawn) [Compound C1, 3-((S)-3-benzyl-8-oxo-1,2,3,4,4a,5,8,10-octahydro-9H-pyrazino[1′,2′:4,5][1,4]oxazino[2,3-f]isoindol-9-yl)piperidine-2,6-dione]
DC50: > 2000 nM | Dmax: 27%

O=C1CCC(N2Cc3cc4c(cc3C2=O)OC[C@@H]2CN(CC3CCCCC3)CCN42)C(=O)N1 (stereo partly drawn) [Compound C2, 3-((S)-3-(cyclohexylmethyl)-8-oxo-1,2,3,4,4a,5,8,10-octahydro-9H-pyrazino[1′,2′:4,5][1,4]oxazino[2,3-f]isoindol-9-yl)piperidine-2,6-dione]
DC50: 1400 nM | Dmax: 56%

CCCN1CCN2c3cc4c(cc3OC[C@@H]2C1)C(=O)N(C1CCC(=O)NC1=O)C4 (stereo partly drawn) [Compound C3, 3-((S)-8-oxo-3-385.21propyl-1,2,3,4,4a,5,8,10-octahydro-9H-pyrazino[1′,2′:4,5][1,4]oxazino[2,3-f]isoindol-9-yl)piperidine-2,6-dione]
DC50: > 2000 nM | Dmax: 58%

O=C1CCC(N2Cc3cc4c(cc3C2=O)OC[C@@H]2CN(CC3CCCC3)CCN42)C(=O)N1 (stereo partly drawn) [Compound C4, 3-((S)-3-(cyclopentylmethyl)-8-oxo-1,2,3,4,4a,5,8,10-octahydro-9H-pyrazino[1′,2′:4,5][1,4]oxazino[2,3-f]isoindol-9-yl)piperidine-2,6-dione]
DC50: 430 nM | Dmax: 61%

CC(=O)N1CCC(CCN2CCN3c4cc5c(cc4OC[C@@H]3C2)C(=O)N(C2CCC(=O)NC2=O)C5)CC1 (stereo partly drawn) [Compound C5, 3-((S)-3-(2-(1-acetylpiperidin-4-yl)ethyl)-8-oxo-1,2,3,4,4a,5,8,10-octahydro-9H-pyrazino[1′,2′:4,5][1,4]oxazino[2,3-f]isoindol-9-yl)piperidine-2,6-dione]
DC50: > 2000 nM | Dmax: 38%

CC(=O)N1CC2(CCC(CN3CCN4c5cc6c(cc5OC[C@@H]4C3)C(=O)N(C3CCC(=O)NC3=O)C6)CC2)C1 (stereo partly drawn) [Compound C6, 3-((S)-3-((2-acetyl-2-azaspiro[3.5]nonan-7-yl)methyl)-8-oxo-1,2,3,4,4a,5,8,10-octahydro-9H-pyrazino[1′,2′:4,5][1,4]oxazino[2,3-f]isoindol-9-yl)piperidine-2,6-dione]
DC50: 330 nM | Dmax: 62%

O=C1CCC(N2Cc3cc4c(cc3C2=O)OC[C@@H]2CN(CC3CCN(c5ccccc5)CC3)CCN42)C(=O)N1 (stereo partly drawn) [Compound C7, 3-((S)-8-oxo-3-((1-phenylpiperidin-4-yl)methyl)-1,2,3,4,4a,5,8,10-octahydro-9H-pyrazino[1′,2′:4,5][1,4]oxazino[2,3-f]isoindol-9-yl)piperidine-2,6-dione]
DC50: 320 nM | Dmax: 50%

Cn1cc(-c2cccc(CN3CCN4c5cc6c(cc5OC[C@@H]4C3)C(=O)N([C@H]3CCC(=O)NC3=O)C6)c2)cn1 [Compound C20, (S)-3-((S)-3-(3-(1-methyl-1H-pyrazol-4-yl)benzyl)-8-oxo-1,2,3,4,4a,5,8,10-octahydro-9H-pyrazino[1′,2′:4,5][1,4]oxazino[2,3-f]isoindol-9-yl)piperidine-2,6-dione]
DC50: > 10000 nM | Dmax: 27%

COc1ccc(C(=O)Nc2cccc(CN3CCN4c5cc6c(cc5OC[C@@H]4C3)C(=O)N([C@H]3CCC(=O)NC3=O)C6)c2)cc1 [Compound C21, N-(3-(((S)-9-((S)-2,6-dioxopiperidin-3-yl)-8-oxo-1,2,4a,5,9,10-hexahydro-8H-pyrazino[1′,2′:4,5][1,4]oxazino[2,3-f]isoindol-3(4H)-yl)methyl)phenyl)-4-methoxybenzamide]
DC50: 9 nM | Dmax: 85%

COc1ccc(C(=O)Nc2cccc(CN3CCN4c5cc6c(cc5OC[C@H]4C3)C(=O)N(C3CCC(=O)NC3=O)C6)c2)cc1 (stereo partly drawn) [Compound C22, N-(3-(((4aR)-9-(2,6-dioxopiperidin-3-yl)-8-oxo-1,2,4a,5,9,10-hexahydro-8H-pyrazino[1′,2′:4,5][1,4]oxazino[2,3-f]isoindol-3(4H)-yl)methyl)phenyl)-4-methoxybenzamide]
DC50: > 1000 nM | Dmax: 44%
